PubChem BioAssay (NCI)
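Step 1: Grow cells in 96-well plates. Step 2: Expose to compound for 48 hours at 5 concentrations. Step 3: Interpolate endpoints linearly; if unreached, use highest concentration. At the TGI there is no net growth.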

Legend:
Experiment in all cases: DTP human tumour cell line panel, 48 h
HCT-15 colon = system: HCT-15 colon
A498 renal = system: A498 renal
LXFL 529 NSCLC = system: LXFL 529 NSCLC
DLD-1 colon = system: DLD-1 colon
OVCAR-8 ovarian = system: OVCAR-8 ovarian
OVCAR-3 ovarian = system: OVCAR-3 ovarian
OVCAR-5 ovarian = system: OVCAR-5 ovarian
ACHN renal = system: ACHN renal
XF 498 CNS = system: XF 498 CNS
IGROV1 ovarian = system: IGROV1 ovarian
DMS 273 small cell lung = system: DMS 273 small cell lung
DMS 114 small cell lung = system: DMS 114 small cell lung
SNB-19 CNS = system: SNB-19 CNS
CCRF-CEM leukemia = system: CCRF-CEM leukemia
786-0 renal = system: 786-0 renal
NCI-H460 lung = system: NCI-H460 lung
SF-295 CNS = system: SF-295 CNS
SNB-78 CNS = system: SNB-78 CNS
OVCAR-4 ovarian = system: OVCAR-4 ovarian
SK-MEL-28 melanoma = system: SK-MEL-28 melanoma
NCI-H23 lung = system: NCI-H23 lung
SF-268 CNS = system: SF-268 CNS
HOP-62 NSCLC = system: HOP-62 NSCLC
UACC-257 melanoma = system: UACC-257 melanoma
MALME-3M melanoma = system: MALME-3M melanoma
HCC-2998 colon = system: HCC-2998 colon
MOLT-4 leukemia = system: MOLT-4 leukemia
EKVX NSCLC = system: EKVX NSCLC
SN12C renal = system: SN12C renal
SK-OV-3 ovarian = system: SK-OV-3 ovarian
A549 NSCLC = system: A549 NSCLC
COLO 205 colon = system: COLO 205 colon
SR leukemia = system: SR leukemia
LOX IMVI melanoma = system: LOX IMVI melanoma
HCT-116 colon = system: HCT-116 colon
SW-620 colon = system: SW-620 colon
KM12 colon = system: KM12 colon
RPMI-8226 leukemia = system: RPMI-8226 leukemia
SF-539 CNS = system: SF-539 CNS
SK-MEL-5 melanoma = system: SK-MEL-5 melanoma
NCI-H226 lung = system: NCI-H226 lung
NCI-H522 lung = system: NCI-H522 lung
HL-60(TB) leukemia = system: HL-60(TB) leukemia
TK-10 renal = system: TK-10 renal
SK-MEL-2 melanoma = system: SK-MEL-2 melanoma
M14 melanoma = system: M14 melanoma
UACC-62 melanoma = system: UACC-62 melanoma
M19-MEL melanoma = system: M19-MEL melanoma
K-562 leukemia = system: K-562 leukemia
HT29 colon = system: HT29 colon
HOP-18 NSCLC = system: HOP-18 NSCLC
UO-31 renal = system: UO-31 renal
SNB-75 CNS = system: SNB-75 CNS
KM20L2 colon = system: KM20L2 colon
U251 CNS = system: U251 CNS
HOP-92 NSCLC = system: HOP-92 NSCLC
RXF 393 renal = system: RXF 393 renal
CAKI-1 renal = system: CAKI-1 renal
RXF-631 renal = system: RXF-631 renal

CCCCC(N)CSSCC(N)CCCC (centres undefined)
TGI (HCT-15 colon): 63.2 µM | TGI (A498 renal): 57.4 µM | TGI (LXFL 529 NSCLC): 31.2 µM | TGI (DLD-1 colon): 60.3 µM | TGI (OVCAR-8 ovarian): > 100 µM | TGI (OVCAR-3 ovarian): 47.2 µM | TGI (OVCAR-5 ovarian): 38.1 µM | TGI (ACHN renal): > 100 µM | TGI (XF 498 CNS): 34.9 µM | TGI (IGROV1 ovarian): > 100 µM | TGI (DMS 273 small cell lung): 45.6 µM | TGI (DMS 114 small cell lung): 37.1 µM | TGI (SNB-19 CNS): > 100 µM | TGI (CCRF-CEM leukemia): 64.2 µM | TGI (786-0 renal): 32.8 µM | TGI (NCI-H460 lung): > 100 µM | TGI (SF-295 CNS): > 100 µM | TGI (SNB-78 CNS): 98.5 µM | TGI (OVCAR-4 ovarian): 32.6 µM | TGI (SK-MEL-28 melanoma): 34.8 µM | TGI (NCI-H23 lung): 55.4 µM | TGI (SF-268 CNS): 61.5 µM | TGI (HOP-62 NSCLC): 95.4 µM | TGI (UACC-257 melanoma): 44.9 µM | TGI (MALME-3M melanoma): 32.6 µM | TGI (HCC-2998 colon): 35.4 µM | TGI (MOLT-4 leukemia): 47.9 µM | TGI (EKVX NSCLC): 61.8 µM | TGI (SN12C renal): 36.1 µM | TGI (SK-OV-3 ovarian): > 100 µM | TGI (A549 NSCLC): > 100 µM | TGI (COLO 205 colon): > 100 µM | TGI (SR leukemia): 45.7 µM | TGI (LOX IMVI melanoma): 32.1 µM | TGI (HCT-116 colon): 31.8 µM | TGI (SW-620 colon): 58 µM | TGI (KM12 colon): > 100 µM | TGI (RPMI-8226 leukemia): 61.5 µM | TGI (SF-539 CNS): 47.8 µM | TGI (SK-MEL-5 melanoma): 55.7 µM | TGI (NCI-H226 lung): 43.6 µM | TGI (NCI-H522 lung): 29.7 µM | TGI (HL-60(TB) leukemia): 40.1 µM | TGI (TK-10 renal): > 100 µM | TGI (SK-MEL-2 melanoma): 36.7 µM | TGI (M14 melanoma): 38.2 µM | TGI (UACC-62 melanoma): 41.1 µM | TGI (M19-MEL melanoma): 56.9 µM | TGI (K-562 leukemia): 57 µM | TGI (HT29 colon): 50.8 µM | TGI (HOP-18 NSCLC): > 100 µM | TGI (UO-31 renal): 47.1 µM | TGI (SNB-75 CNS): > 100 µM

COc1cc(/C=C2\Cc3ccccc3C2=O)cc(OC)c1OC
TGI (HCT-15 colon): > 100 µM | TGI (LXFL 529 NSCLC): > 100 µM | TGI (KM20L2 colon): > 100 µM | TGI (DLD-1 colon): > 100 µM | TGI (OVCAR-8 ovarian): > 100 µM | TGI (OVCAR-3 ovarian): > 100 µM | TGI (OVCAR-5 ovarian): > 100 µM | TGI (ACHN renal): > 100 µM | TGI (XF 498 CNS): > 100 µM | TGI (DMS 273 small cell lung): > 100 µM | TGI (DMS 114 small cell lung): > 100 µM | TGI (SNB-19 CNS): > 100 µM | TGI (CCRF-CEM leukemia): > 100 µM | TGI (786-0 renal): > 100 µM | TGI (NCI-H460 lung): > 100 µM | TGI (SF-295 CNS): > 100 µM | TGI (U251 CNS): > 100 µM | TGI (SNB-78 CNS): > 100 µM | TGI (HOP-92 NSCLC): > 100 µM | TGI (OVCAR-4 ovarian): > 100 µM | TGI (SK-MEL-28 melanoma): > 100 µM | TGI (NCI-H23 lung): > 100 µM | TGI (SF-268 CNS): > 100 µM | TGI (HOP-62 NSCLC): > 100 µM | TGI (UACC-257 melanoma): > 100 µM | TGI (MALME-3M melanoma): > 100 µM | TGI (HCC-2998 colon): > 100 µM | TGI (RXF 393 renal): > 100 µM | TGI (MOLT-4 leukemia): > 100 µM | TGI (EKVX NSCLC): > 100 µM | TGI (SN12C renal): > 100 µM | TGI (SK-OV-3 ovarian): > 100 µM | TGI (A549 NSCLC): > 100 µM | TGI (COLO 205 colon): > 100 µM | TGI (LOX IMVI melanoma): > 100 µM | TGI (HCT-116 colon): > 100 µM | TGI (SW-620 colon): > 100 µM | TGI (KM12 colon): > 100 µM | TGI (RPMI-8226 leukemia): > 100 µM | TGI (SF-539 CNS): > 100 µM | TGI (SK-MEL-5 melanoma): > 100 µM | TGI (CAKI-1 renal): > 100 µM | TGI (NCI-H226 lung): > 100 µM | TGI (NCI-H522 lung): > 100 µM | TGI (HL-60(TB) leukemia): > 100 µM | TGI (TK-10 renal): > 100 µM | TGI (RXF-631 renal): > 100 µM | TGI (SK-MEL-2 melanoma): > 100 µM | TGI (M14 melanoma): > 100 µM | TGI (UACC-62 melanoma): > 100 µM | TGI (M19-MEL melanoma): > 100 µM | TGI (K-562 leukemia): > 100 µM | TGI (HT29 colon): > 100 µM | TGI (HOP-18 NSCLC): > 100 µM | TGI (UO-31 renal): > 100 µM | TGI (SNB-75 CNS): > 100 µM
